Columns and labels:
[1] = tested on: C57BL/6 male mice; test: Seltzer model of neuropathic pain, Hargreaves' test; format: in vivo, mouse
Description: Neuropathic pain. The mouse Seltzer model of neuropathic pain (Malmberg et al. (1998) Pain 76:215-222) was used with C57BL/6 male mice, in which a partial nerve injury was produced by tying a tight ligature with a 7-0 silk suture around approximately ⅓ to ½ the diameter of the sciatic nerve of one single thigh per mouse. Post-surgery, the mice were allowed to recover for at least two days and then they were studied for several weeks post-surgery for thermal hyperalgesia in the Hargreaves' test. Controls were sham-operated mice in which the sciatic nerve was exposed and elevated but not tied. Following surgery, the mice were tested at day […] and at day 7 post-surgery to confirm that the thermal hyperalgesia had developed.
Following the Seltzer surgery, mice were tested at days 5 and 7 post-surgery to confirm that the thermal hyperalgesia had developed.

[2] = tested on: transgenic mice of which the endogenous mouse NGF locus was replaced with the human NGF gene; test: Seltzer neuropathic pain model in mice with human NGF gene, Hargreaves' test; format: in vivo; details: 50 mg/kg s.c. at day 8 post-surgery; p<0.05
Protocol: These mice were used in a Seltzer neuropathic pain model to test REGN268 and control mAbs. Following the Seltzer surgery, these mice were tested at day 4 and at day 8 post-surgery to confirm that the thermal hyperalgesia had developed.

With “IgG1 Control: negative binding control, IgG1 control (AVASTIN®; Genentech, CA)” the “mean percent change from Hargreaves baseline” value (“mean percent change” for short) ([1]; Table 24, injected Day 7, Day 32) was −41.9 ± 8.3%, the “mean percent change” value ([1]; Table 24, injected Day 7, Day 35) was −43.9 ± 6.8% and the “mean percent change” value ([1]; Table 24, injected Day 7, Day 42) was −35.0 ± 6.6%. For the same substance, the “mean percent change” value ([1]; Table 24, injected Day 14, Day 5 after surgery) was −60.0 ± 4.8%, the “mean percent change” value ([1]; Table 24, injected Day 14, Day 7) was −54.4 ± 6.4% and the “mean percent change” value ([1]; Table 24, injected Day 14, Day 8) was −55.3 ± 6.1%. For the same substance, the “mean percent change” value ([1]; Table 24, injected Day 14, Day 10) was −52.8 ± 7.2%, the “mean percent change” value ([1]; Table 24, injected Day 14, Day 14) was −62.1 ± 5.7% and the “mean percent change” value ([1]; Table 24, injected Day 14, Day 15) was −63.0 ± 5.8%. For the same substance, the “mean percent change” value ([1]; Table 24, injected Day 14, Day 17) was −58.6 ± 5.7%, the “mean percent change” value ([1]; Table 24, injected Day 14, Day 21) was −57.1 ± 4.4% and the “mean percent change” value ([1]; Table 24, injected Day 14, Day 24) was −49.5 ± 6.6%. For the same substance, the “mean percent change” value ([1]; Table 24, injected Day 14, Day 28) was −53.6 ± 5.4%, the “mean percent change” value ([1]; Table 24, injected Day 14, Day 32) was −40.9 ± 13.1% and the “mean percent change” value ([1]; Table 24, injected Day 14, Day 35) was −42.9 ± 10.3%. For the same substance, the “mean percent change” value ([1]; Table 24, injected Day 14, Day 39) was −39.0 ± 11.4%, the “mean percent change” value ([1]; Table 24, injected Day 14, Day 42) was −38.1 ± 12.5% and the “mean percent change” value ([1]; Table 24, injected Day 21, Day 5 after surgery) was −55.5 ± 5.0%. The “mean percent change” value ([1]; Table 24, injected Day 21, Day 7) was −47.2 ± 4.8%, the “mean percent change” value ([1]; Table 24, injected Day 21, Day 8) was −47.9 ± 4.7% and the “mean percent change” value ([1]; Table 24, injected Day 21, Day 10) was −55.0 ± 6.7%. For the same substance, the “mean percent change” value ([1]; Table 24, injected Day 21, Day 14) was −63.8 ± 4.6%, the “mean percent change” value ([1]; Table 24, injected Day 21, Day 15) was −54.5 ± 5.0% and the “mean percent change” value ([1]; Table 24, injected Day 21, Day 17) was −52.4 ± 5.3%. For the same substance, the “mean percent change” value ([1]; Table 24, injected Day 21, Day 21) was −55.8 ± 3.6%, the “mean percent change” value ([1]; Table 24, injected Day 21, Day 22) was −50.6 ± 5.3% and the “mean percent change” value ([1]; Table 24, injected Day 21, Day 24) was −44.7 ± 5.7%. For the same substance, the “mean percent change” value ([1]; Table 24, injected Day 21, Day 28) was −46.0 ± 7.6%, the “mean percent change” value ([1]; Table 24, injected Day 21, Day 32) was −32.8 ± 4.8% and the “mean percent change” value ([1]; Table 24, injected Day 21, Day 35) was −39.8 ± 4.5%. For the same substance, the “mean percent change” value ([1]; Table 24, injected Day 21, Day 39) was −34.6 ± 10.0%, the “mean percent change” value ([1]; Table 24, injected Day 21, Day 42) was −33.9 ± 9.9% and the “mean percent change” value ([1]; Table 25, 50 mg/kg s.c. at day 7, day 5 after surgery) was −51.2 ± 5.2%. The “mean percent change” value ([1]; Table 25, 50 mg/kg s.c. at day 7, day 7) was −47.6 ± 3.9%, the “mean percent change” value ([1]; Table 25, 50 mg/kg s.c. at day 7, day 9) was −36.7 ± 14.6% and the “mean percent change” value ([1]; Table 25, 50 mg/kg s.c. at day 7, day 12) was −47.2 ± 5.5%. For the same substance, the “mean percent change” value ([1]; Table 25, 50 mg/kg s.c. at day 7, day 15) was −46.7 ± 8.5%, the “mean percent change” value ([1]; Table 25, 50 mg/kg s.c. at day 7, day 19) was −28.6 ± 7.5% and the “mean percent change” value ([1]; Table 25, 50 mg/kg s.c. at day 7, day 22) was −34.9 ± 7.9%. For the same substance, the “mean percent change” value ([1]; Table 25, 50 mg/kg s.c. at day 7 post-surgery, Baseline) was 0.0 ± 0.0%, the “mean percent change” value ([1]; Table 26, 50 mg/kg i.p. at day 7, day 5 after surgery) was −55.5 ± 3.8% and the “mean percent change” value ([1]; Table 26, 50 mg/kg i.p. at day 7, day 7) was −61.6 ± 1.8%. The “mean percent change” value ([1]; Table 26, 50 mg/kg i.p. at day 7, day 8) was −59.3 ± 4.0%, the “mean percent change” value ([1]; Table 26, 50 mg/kg i.p. at day 7, day 9) was −51.0 ± 4.2% and the “mean percent change” value ([1]; Table 26, 50 mg/kg i.p. at day 7, day 12) was −46.5 ± 6.3%. For the same substance, the “mean percent change” value ([1]; Table 26, 50 mg/kg i.p. at day 7, day 15) was −43.3 ± 6.6%, the “mean percent change” value ([1]; Table 26, 50 mg/kg i.p. at day 7 post-surgery, Baseline) was 0.0 ± 0.0% and the “relief of neuropathic pain in humanized NGF mice” value [2] was “had no effect”.

— patent US8613927B2, “High affinity human antibodies to human nerve growth factor” (Regeneron Pharmaceuticals, Inc., priority 2007, dated 2013)
